Test results: patent US6372727B1, “Metalloporphyrin treatment of neurologic disease” (UAB Research Foundation, priority 1999, dated 2002)
Several values for one entry are separate records, joined by “and”; a condition that tells them apart may be missing. Equal values may be shown once.

How the values were obtained:
isolated hearts = assay: Isolated hearts, ischemia and reperfusion
[1] = Ascorbate oxidation by MPs monitored at 266 nm; type: biochemical; settings: MP 10 μM, 50 μM ascorbate, 0.1 M potassium phosphate pH 7.4, ± standard error, n=3
[2] = Peroxynitrite-mediated nitration of GYA peptide; type: biochemical; settings: percent of added peroxynitrite
[3] = MP-catalyzed peroxynitrite decomposition monitored at 302 nm; type: biochemical; settings: 100 μM peroxynitrite
[4] = reference (8); cited from earlier work
[5] = MP-catalyzed nitration of HPA: effect of pH, reductants and serum; type: biochemical

Structure (SMILES) | protection of isolated hearts (isolated hearts) | Rate of Ascorbate Oxidation [1] [µM/min] | average efficiency of nitration catalysis [2] [%] | Rate Constants for MP-Catalyzed Decomposition of Peroxynitrite (pH 7.4, 37° C.) ([3]; absence of added reductants) | effect of HOCl on the MP (50 μM HOCl) | oxidation by H2O2 (0.5 mM H2O2, 20 min) | Rate constant for oxidation by peroxynitrite reported previously [4] [M⁻¹ s⁻¹] | Rate Constants for MP-Catalyzed Decomposition of Peroxynitrite (pH 7.4, 37° C.) ([3]; plus ascorbate 150 μM) | enhancement of nitration yield at pH 9.1 ([5]; 8 mM HPA, 10 μM MP, 0.1 M sodium borate pH 9.1, versus non-catalyzed) [fold] | effect of ascorbate and GSH on nitration enhancement ([5]; concentrations which eliminated non-catalyzed nitration) | ascorbate concentration giving complete inhibition of nitration enhancement ([5]; dose-dependent, not shown) [mM] | effect of serum on nitration enhancement ([5]; fresh human serum 1:10 added prior to peroxynitrite)
O=C(O)c1ccc(-c2c3nc(c(-c4ccc(C(=O)O)cc4)c4ccc([n-]4)c(-c4ccc(C(=O)O)cc4)c4nc(c(-c5ccc(C(=O)O)cc5)c5ccc2[n-]5)C=C4)C=C3)cc1.[Fe+2] [FeTCPP, Iron (III) meso 5,10,15,20-tetrakis-(4-carboxy-phenyl) porphyrin] | protects isolated hearts from the injurious effects of ischemia and reperfusion | 5.8 | 22.7 | 1.6×10^6 M^−1s^−1 and 2.9 × 10^6 M^−1s^−1 ± 0.4 M^−1s^−1 |  |  |  |  |  |  |  | 
C[n+]1ccc(-c2c3nc(c(-c4cc[n+](C)cc4)c4ccc([n-]4)c(-c4cc[n+](C)cc4)c4nc(c(-c5cc[n+](C)cc5)c5ccc2[n-]5)C=C4)C=C3)cc1.[Cl-].[Cl-].[Cl-].[Cl-].[Cl-].[Mn+3] [MnTMPyP, Manganese (III) meso-tetra-(N-methyl-4-pyridyl)-porphine chloride] |  | 6.77 ± 0.33 |  |  | appeared to destroy the metal-pyrrole center | did not appear to oxidize | 1.8e+06 | 1.8 × 10^6 ± 0.3 M^−1s^−1 | 12.3 | much less inhibitory effect | 1.5 | much less effect
